This is an account of results in US8962547B2 (Signature Therapeutics, Inc., priority 2011, dated 2015).

Series [1] is described as follows: Pharmacokinetics following PO administration to dogs, Study A (oxycodone in plasma).
Another series addresses T1, trypsin (Bos taurus, UniProt P00760).
T1 construct: purchased Sigma-Aldrich T8003; host or cells: bovine pancreas
T1 sequence (P00760 24-246): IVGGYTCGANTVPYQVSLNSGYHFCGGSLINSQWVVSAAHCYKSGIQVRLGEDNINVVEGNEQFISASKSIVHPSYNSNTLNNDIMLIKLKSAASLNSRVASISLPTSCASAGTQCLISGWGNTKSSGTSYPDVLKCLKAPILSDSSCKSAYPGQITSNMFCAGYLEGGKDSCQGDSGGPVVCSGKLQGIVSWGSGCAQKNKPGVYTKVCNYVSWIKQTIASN
Put plainly: In vitro trypsin-mediated prodrug cleavage. It counts as biochemical, bovine. Conditions: bovine, trypsin from bovine pancreas; 0.761 mM KC-8•2HCl, Tris pH 8, 37° C.; footnote: adjusted to 4815 BAEE U/mL trypsin. The method, then:
(§1) The reactions were conducted at 37° C. for 24 h.
(§2) Table 3 indicates the results of exposure of Compound KC-8 to trypsin. […] Table 3 also indicates the cyclization rate of the cyclizable spacer leaving group of Compound KC-22. The results are expressed as half-life of compound disappearance.

In series [2] the target is T2, trypsin from bovine pancreas (Bos taurus, UniProt P00760).
T2 construct: purchased Sigma-Aldrich T8003; host or cells: bovine pancreas
T2 sequence (P00760 24-246): T1 sequence (P00760 24-246)
Description: In vitro trypsin-mediated prodrug cleavage. It counts as biochemical. The method, then: as §1, §2

Series [3] in a line: Pharmacokinetics of Compound KC-8 following PO administration to dogs, Study B. The series is classed as in vivo, dog. Conditions: 4.55 to 18.2 mg/kg. Here is the method: Compound KC-8 was also dosed to dogs in a separate experiment at the doses indicated in Table 2B, and samples were collected at various times over a 48-h period. Otherwise, the procedures were the same as that described for Study A.

Series [4] in a line: Spacer leaving group cyclization release rate in phosphate buffer. It counts as physicochemical. Conditions: 2.18 mM initial, 50 mM pH 7.4 phosphate buffer, 20° C.
Description: as §2

Where [5] appears, read: male, beagle, dog, plasma, po, 2 mg/kg.

For `COc1ccc2c3c1O[C@H]1C(OC(=O)N(C)CC(C)(C)CNC(=O)[C@H](CCCNC(=N)N)NC(=O)CNC(=O)CC(=O)O)=CC[C@@]4(O)[C@@H](C2)N(C)CC[C@]314` [Compound KC-8, N-1-[3-(oxycodone-6-enol-carbonyl-methyl-amino)-2,2-dimethyl-propylamine]-arginine-glycine-malonic acid], in series [1] (dogs, PO), the “oxycodone PK profile compared to administration of oxycodone” value was “suppressed oxycodone Cmax, delayed oxycodone Tmax and extended oxycodone exposure time (AUC)”; the “release of oxycodone into dog plasma compared to Compound KC-3” value is “significantly enhanced release of oxycodone into dog plasma (higher Cmax and AUC)”. Besides, on trypsin, the half-life at 0.761 mM is 11.3 ± 0.48 min. In addition, the OC formation rate in series [2] (0.761 mM KC-8•2HCl, Tris pH 8, 37° C.) is given as 0.296 ± 0.044 μmol/h/BAEE U. In series [2] (in vitro), the cleavage by trypsin result is “can be cleaved by trypsin”. In series [3], the “oral PK profile in dogs” value is “reproducible oral PK profile in dogs that is dose proportional”.

On to `COc1ccc2c3c1O[C@H]1C(OC(=O)N(C)CC(C)(C)CN)=CC[C@@]4(O)[C@@H](C2)N(C)CC[C@]314` [Compound KC-22, N-1-[3-(oxycodone-6-enol-carbonyl-methyl-amino)-2,2-dimethyl-propylamine]], for which, in series [4], the Disappearance half-life came out at 10.4 ± 0.0060 h.

Turning to `COc1ccc2c3c1O[C@H]1C(=O)CC[C@@]4(O)[C@@H](C2)N(C)CC[C@]314.Cl` [Oxycodone, oxycodone HCl, reference compound], in series [1] (setting [5]), the AUC is 418 ± 54 ng·h/mL, the maximum concentration (Cmax) is 193 ± 69 ng/mL and the time to peak (Tmax) was 30 min.

As to “N-1-[2-(oxycodone-6-enol-carbonyl-methyl-amino)-ethylamine]-arginine-malonic acid [Compound KC-3]”, the “OC Cmax ± sd” value in series [1] (oxycodone in dog plasma, 4.15 mg/kg ([…]) PO, LLOQ […]) came out at 10.2 ± 3.3 ng/mL. Besides, in series [1] (oxycodone in dog plasma, 4.15 mg/kg PO), the “AUC ± sd 0-24 h” value stood at 65.6 ± 22 ng·h/mL.

For orientation: half-life means the time in which the quantity being followed falls by half. Usually AUC stands for concentration integrated over time. Low readings indicate low exposure, high ones high exposure. The Cmax is the maximum level reached in the sampled fluid or tissue. Broadly, the Tmax is the time at which the peak concentration occurs.
